Results: ChEMBL document CHEMBL1201862, “PubChem BioAssay data set” (2004)
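Protocol summary: plate cells (96-well), add compound at 5 concentrations, incubate 48 h, interpolate endpoints linearly. Abbreviation: GI50, concentration required for 50% inhibition of growth.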 Activity calls are given as the source filed them. No stated cut-off is given here; in the data, active = GI50 up to about 1.1 µM and inactive = higher.

Legend:
Assay in all cases: NCI anticancer screen, dose series, 48 h
SF-268 = tested on: SF-268
SK-MEL-5 = tested on: SK-MEL-5
NCI-H460 = tested on: NCI-H460
CAKI-1 = tested on: CAKI-1
M14 = tested on: M14
RXF 631 = tested on: RXF 631
HCT-116 = tested on: HCT-116
SR = tested on: SR
SNB-75 = tested on: SNB-75
U-251 = tested on: U-251
OVCAR-8 = tested on: OVCAR-8
K562 = tested on: K562
HT-29 = tested on: HT-29
LXFL 529 = tested on: LXFL 529
CCRF-CEM = tested on: CCRF-CEM
TK-10 = tested on: TK-10
SNB-19 = tested on: SNB-19
UACC-62 = tested on: UACC-62
HOP-92 = tested on: HOP-92
ACHN = tested on: ACHN
786-0 = tested on: 786-0
OVCAR-4 = tested on: OVCAR-4
OVCAR-5 = tested on: OVCAR-5
DMS-273 = tested on: DMS-273
DLD-1 = tested on: DLD-1
MOLT-4 = tested on: MOLT-4
Malme-3M = tested on: Malme-3M
HL-60 = tested on: HL-60
HOP-18 = tested on: HOP-18
XF498 = tested on: XF498
COLO 205 = tested on: COLO 205
M19-MEL = tested on: M19-MEL
IGROV-1 = tested on: IGROV-1
SF-295 = tested on: SF-295
UACC-257 = tested on: UACC-257
NCI-H23 = tested on: NCI-H23
KM12 = tested on: KM12
HOP-62 = tested on: HOP-62
NCI-H522 = tested on: NCI-H522
RPMI-8226 = tested on: RPMI-8226
SK-MEL-2 = tested on: SK-MEL-2
RXF 393 = tested on: RXF 393
HCC 2998 = tested on: HCC 2998
EKVX = tested on: EKVX
OVCAR-3 = tested on: OVCAR-3
A498 = tested on: A498
SF-539 = tested on: SF-539
HCT-15 = tested on: HCT-15
SNB-78 = tested on: SNB-78
A549 = tested on: A549
NCI-H226 = tested on: NCI-H226
UO-31 = tested on: UO-31
SK-OV-3 = tested on: SK-OV-3
LOX IMVI = tested on: LOX IMVI
KM-20L2 = tested on: KM-20L2
SN12C = tested on: SN12C
DMS-114 = tested on: DMS-114
SK-MEL-28 = tested on: SK-MEL-28
SW-620 = tested on: SW-620

SMILES: CCO/C=C/C(C)C1(C(=O)OCC)CCCCC1=O (stereo unspecified)
- GI50 (SF-268): > 100 µM (inactive)
- GI50 (SK-MEL-5): > 100 µM (inactive)
- GI50 (NCI-H460): > 100 µM (inactive)
- GI50 (CAKI-1): > 100 µM (inactive)
- GI50 (M14): > 100 µM (inactive)
- GI50 (RXF 631): > 100 µM (inactive)
- GI50 (HCT-116): > 100 µM (inactive)
- GI50 (SR): > 100 µM (inactive)
- GI50 (SNB-75): > 100 µM (inactive)
- GI50 (U-251): > 100 µM (inactive)
- GI50 (OVCAR-8): > 100 µM (inactive)
- GI50 (K562): > 100 µM (inactive)
- GI50 (HT-29): > 100 µM (inactive)
- GI50 (LXFL 529): > 100 µM (inactive)
- GI50 (CCRF-CEM): > 100 µM (inactive)
- GI50 (TK-10): > 100 µM (inactive)
- GI50 (SNB-19): > 100 µM (inactive)
- GI50 (UACC-62): > 100 µM (inactive)
- GI50 (HOP-92): > 100 µM (inactive)
- GI50 (ACHN): > 100 µM (inactive)
- GI50 (786-0): 56.8 µM (inactive)
- GI50 (OVCAR-4): > 100 µM (inactive)
- GI50 (OVCAR-5): > 100 µM (inactive)
- GI50 (DMS-273): 21.4 µM (inactive)
- GI50 (DLD-1): > 100 µM (inactive)
- GI50 (MOLT-4): > 100 µM (inactive)
- GI50 (Malme-3M): > 100 µM (inactive)
- GI50 (HL-60): 71.1 µM (inactive)
- GI50 (HOP-18): > 100 µM (inactive)
- GI50 (XF498): > 100 µM (inactive)
- GI50 (COLO 205): > 100 µM (inactive)
- GI50 (M19-MEL): > 100 µM (inactive)
- GI50 (IGROV-1): > 100 µM (inactive)
- GI50 (SF-295): > 100 µM (inactive)
- GI50 (UACC-257): > 100 µM (inactive)
- GI50 (NCI-H23): > 100 µM (inactive)
- GI50 (KM12): > 100 µM (inactive)
- GI50 (HOP-62): > 100 µM (inactive)
- GI50 (NCI-H522): > 100 µM (inactive)
- GI50 (RPMI-8226): 84.1 µM (inactive)
- GI50 (SK-MEL-2): > 100 µM (inactive)
- GI50 (RXF 393): > 100 µM (inactive)
- GI50 (HCC 2998): > 100 µM (inactive)
- GI50 (EKVX): > 100 µM (inactive)
- GI50 (OVCAR-3): > 100 µM (inactive)
- GI50 (A498): > 100 µM (inactive)
- GI50 (SF-539): > 100 µM (inactive)
- GI50 (HCT-15): 63.1 µM
- GI50 (SNB-78): > 100 µM (inactive)
- GI50 (A549): > 100 µM (inactive)
- GI50 (NCI-H226): > 100 µM (inactive)
- GI50 (UO-31): > 100 µM (inactive)
- GI50 (SK-OV-3): > 100 µM (inactive)
- GI50 (LOX IMVI): 45.9 µM (inactive)
- GI50 (KM-20L2): > 100 µM (inactive)
- GI50 (SN12C): > 100 µM (inactive)
- GI50 (DMS-114): 86.9 µM (inactive)
- GI50 (SK-MEL-28): > 100 µM (inactive)

SMILES: COC(=O)C(=O)C(C(C)=O)C(=O)NCc1ccc(OC)c(OC)c1 (stereo unspecified)
- GI50 (SF-268): > 100 µM (inactive)
- GI50 (SK-MEL-5): > 100 µM (inactive)
- GI50 (NCI-H460): > 100 µM (inactive)
- GI50 (CAKI-1): > 100 µM (inactive)
- GI50 (M14): > 100 µM (inactive)
- GI50 (RXF 631): > 100 µM (inactive)
- GI50 (HCT-116): > 100 µM (inactive)
- GI50 (SR): > 100 µM (inactive)
- GI50 (SNB-75): > 100 µM (inactive)
- GI50 (SW-620): 40.5 µM (inactive)
- GI50 (U-251): > 100 µM (inactive)
- GI50 (OVCAR-8): > 100 µM (inactive)
- GI50 (K562): > 100 µM (inactive)
- GI50 (HT-29): > 100 µM (inactive)
- GI50 (LXFL 529): > 100 µM (inactive)
- GI50 (CCRF-CEM): > 100 µM (inactive)
- GI50 (TK-10): > 100 µM (inactive)
- GI50 (SNB-19): > 100 µM (inactive)
- GI50 (UACC-62): > 100 µM (inactive)
- GI50 (HOP-92): > 100 µM (inactive)
- GI50 (ACHN): > 100 µM (inactive)
- GI50 (786-0): > 100 µM (inactive)
- GI50 (OVCAR-4): > 100 µM (inactive)
- GI50 (OVCAR-5): > 100 µM (inactive)
- GI50 (DMS-273): > 100 µM (inactive)
- GI50 (DLD-1): > 100 µM (inactive)
- GI50 (MOLT-4): > 100 µM (inactive)
- GI50 (Malme-3M): > 100 µM (inactive)
- GI50 (HL-60): > 100 µM (inactive)
- GI50 (HOP-18): > 100 µM (inactive)
- GI50 (XF498): > 100 µM (inactive)
- GI50 (COLO 205): > 100 µM (inactive)
- GI50 (M19-MEL): > 100 µM (inactive)
- GI50 (IGROV-1): > 100 µM (inactive)
- GI50 (SF-295): > 100 µM (inactive)
- GI50 (UACC-257): > 100 µM (inactive)
- GI50 (NCI-H23): > 100 µM (inactive)
- GI50 (KM12): > 100 µM (inactive)
- GI50 (HOP-62): > 100 µM (inactive)
- GI50 (NCI-H522): > 100 µM (inactive)
- GI50 (SK-MEL-2): > 100 µM (inactive)
- GI50 (RXF 393): 78.5 µM (inactive)
- GI50 (HCC 2998): > 100 µM (inactive)
- GI50 (EKVX): > 100 µM (inactive)
- GI50 (OVCAR-3): > 100 µM (inactive)
- GI50 (A498): > 100 µM (inactive)
- GI50 (SF-539): > 100 µM (inactive)
- GI50 (HCT-15): > 100 µM
- GI50 (SNB-78): > 100 µM (inactive)
- GI50 (A549): > 100 µM (inactive)
- GI50 (NCI-H226): > 100 µM (inactive)
- GI50 (UO-31): > 100 µM (inactive)
- GI50 (SK-OV-3): > 100 µM (inactive)
- GI50 (LOX IMVI): > 100 µM (inactive)
- GI50 (KM-20L2): > 100 µM (inactive)
- GI50 (SN12C): > 100 µM (inactive)
- GI50 (DMS-114): > 100 µM (inactive)
- GI50 (SK-MEL-28): > 100 µM (inactive)
